Emax and EC50 data for 26 compounds are collected here from patent US11485742B2, “2-azaspiro[3.4]octane derivatives as M4 agonists” (NOVARTIS AG, priority 2019, dated 2022).

This experiment deals with T1, human cloned CHRM3 receptor (Homo sapiens, UniProt P20309).
T1 construct: expressed in transfected cells; host or cells: CHO-K1 (M3_CHO)
Description: CHRM3 Ca++ Flux Assay (M3_CHO cells, agonist mode). The settings on record: for Emax: Percent Activity (PA) measured to EC100 of Carbachol, read-out: M3 FDSS PA %; for EC50: agonist mode, geometric mean if tested more than once, read-out: M3 FDSS EC50. Type of experiment: cell-based. In short, it runs like this: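 CHO-K1 cells stably expressing human M3 or M5 receptor, dye-loaded ≥1 h, treated with 11-point compound doses in triplicate; Ca++ flux read over 3 min (FDSS). Agonist-mode four-parameter fit; percent activity relative to carbachol EC100; repeat tests reported as geometric mean.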

T1 sequence (P20309 whole entry): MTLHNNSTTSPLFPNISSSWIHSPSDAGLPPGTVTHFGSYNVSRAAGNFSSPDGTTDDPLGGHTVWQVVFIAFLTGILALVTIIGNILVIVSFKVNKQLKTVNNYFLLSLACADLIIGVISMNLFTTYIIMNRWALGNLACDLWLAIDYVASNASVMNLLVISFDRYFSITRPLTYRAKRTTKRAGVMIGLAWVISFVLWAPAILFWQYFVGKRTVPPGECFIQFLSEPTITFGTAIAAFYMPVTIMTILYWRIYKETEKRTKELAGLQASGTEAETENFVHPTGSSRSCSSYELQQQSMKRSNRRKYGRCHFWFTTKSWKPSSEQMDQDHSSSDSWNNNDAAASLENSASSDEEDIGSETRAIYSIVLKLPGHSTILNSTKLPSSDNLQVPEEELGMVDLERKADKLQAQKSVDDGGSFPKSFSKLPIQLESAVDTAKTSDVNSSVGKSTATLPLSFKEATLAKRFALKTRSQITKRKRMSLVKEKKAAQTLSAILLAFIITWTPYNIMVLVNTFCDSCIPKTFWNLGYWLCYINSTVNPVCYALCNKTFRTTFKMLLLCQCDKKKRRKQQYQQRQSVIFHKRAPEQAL

What is called EC50 is the concentration giving half of the maximal effect. Take `Fc1ccc(OC2COC2)c(C2CCN([C@@H]3COC4(C3)CN(c3nnco3)C4)CC2)c1` [Example 1A, (S)-7-(4-(5-fluoro-2-(oxetan-3-yloxy)phenyl)piperidin-1-yl)-2-(1,3,4-oxadiazol-2-yl)-5-oxa-2-azaspiro[3.4]octane]: the Emax came out at 0% and the EC50 is > 25 µM.

`COCCOc1ccc(F)cc1C1CCN([C@@H]2COC3(C2)CN(c2nnco2)C3)CC1` [Example 1L, (S)-7-(4-(5-fluoro-2-(2-methoxyethoxy)phenyl)piperidin-1-yl)-2-(1,3,4-oxadiazol-2-yl)-5-oxa-2-azaspiro[3.4]octane]: the Emax worked out at 0% and the EC50 is > 25 µM.

As to `Fc1ccc(OC2CC3(COC3)C2)c(C2CCN([C@H]3COC4(C3)CN(c3nnco3)C4)CC2)c1` [Example 7A, (R)-7-(4-(2-((2-oxaspiro[3.3]heptan-6-yl)oxy)-5-fluorophenyl)piperidin-1-yl)-2-(1,3,4-oxadiazol-2-yl)-5-oxa-2-azaspiro[3.4]octane], the Emax was 0% and the EC50 is > 25 µM.

In the case of `Fc1ccc(OC[C@H]2CCOC2)c(C2CCN([C@@H]3COC4(C3)CN(c3nncs3)C4)CC2)c1` [Example 5X, (S)-7-(4-(5-fluoro-2-(((S)-tetrahydrofuran-3-yl)methoxy)phenyl)piperidin-1-yl)-2-(1,3,4-thiadiazol-2-yl)-5-oxa-2-azaspiro[3.4]octane], the Emax came out at 0% and the EC50 is > 25 µM.

On to `Fc1ccc(OCC2CC3(COC3)C2)c(C2CCN([C@@H]3COC4(C3)CN(c3nnco3)C4)CC2)c1` [Example 2S, (S)-7-(4-(2-((2-oxaspiro[3.3]heptan-6-yl)methoxy)-5-fluorophenyl)piperidin-1-yl)-2-(1,3,4-oxadiazol-2-yl)-5-oxa-2-azaspiro[3.4]octane], for which the Emax is 0% and the EC50 was > 25 µM.

For `Fc1ccc(OCC2(F)COC2)c(C2CCN([C@@H]3COC4(C3)CN(c3nnco3)C4)CC2)c1` [Example 2J, (S)-7-(4-(5-fluoro-2-((3-fluorooxetan-3-yl)methoxy)phenyl)piperidin-1-yl)-2-(1,3,4-oxadiazol-2-yl)-5-oxa-2-azaspiro[3.4]octane], the Emax was found to be 0% and the EC50 is > 25 µM.

For `Fc1ccc(OCC2CCOCC2)c(C2CCN([C@@H]3COC4(C3)CN(c3nnco3)C4)CC2)c1` [Example 1J, (S)-7-(4-(5-fluoro-2-((tetrahydro-2H-pyran-4-yl)methoxy)phenyl)piperidin-1-yl)-2-(1,3,4-oxadiazol-2-yl)-5-oxa-2-azaspiro[3.4]octane], the Emax was found to be 0% and the EC50 was > 25 µM.

As for `CC(C)(O)CCOc1ccc(F)cc1C1CCN([C@@H]2COC3(C2)CN(c2nnco2)C3)CC1` [Example 1N, (S)-4-(2-(1-(2-(1,3,4-oxadiazol-2-yl)-5-oxa-2-azaspiro[3.4]octan-7-yl)piperidin-4-yl)-4-fluorophenoxy)-2-methylbutan-2-ol], the Emax stood at 0% and the EC50 is > 25 µM.

For the compound `Fc1ccc(OC2CC3(COC3)C2)c(C2CCN([C@@H]3COC4(C3)CN(c3nncs3)C4)CC2)c1` [Example 5W, (S)-7-(4-(2-((2-oxaspiro[3.3]heptan-6-yl)oxy)-5-fluorophenyl)piperidin-1-yl)-2-(1,3,4-thiadiazol-2-yl)-5-oxa-2-azaspiro[3.4]octane], the Emax is 0% and the EC50 is > 25 µM.

`Fc1ccc(OCc2ncccn2)c(C2CCN([C@@H]3COC4(C3)CN(c3nnco3)C4)CC2)c1` [Example 2I, (S)-7-(4-(5-fluoro-2-(pyrimidin-2-ylmethoxy)phenyl)piperidin-1-yl)-2-(1,3,4-oxadiazol-2-yl)-5-oxa-2-azaspiro[3.4]octane]: the Emax was determined as 0% and the EC50 was > 25 µM.

Regarding `c1ccc(C2CCN([C@@H]3COC4(C3)CN(c3nnco3)C4)CC2)c(-c2ncco2)c1` [Example 1X, (S)-2-(1,3,4-oxadiazol-2-yl)-7-(4-(2-(oxazol-2-yl)phenyl)piperidin-1-yl)-5-oxa-2-azaspiro[3.4]octane], the Emax was 0% and the EC50 is > 25 µM.

Turning to `CC(C)(O)COc1ccc(F)cc1C1CCN([C@@H]2COC3(C2)CN(c2nnco2)C3)CC1` [Example 1U, (S)-1-(2-(1-(2-(1,3,4-oxadiazol-2-yl)-5-oxa-2-azaspiro[3.4]octan-7-yl)piperidin-4-yl)-4-fluorophenoxy)-2-methylpropan-2-ol], the Emax came to 0% and the EC50 is > 25 µM.

Take `c1ccc(C2CCN([C@@H]3COC4(C3)CN(c3nnco3)C4)CC2)c(-c2cncnc2)c1` [Example 1W, (S)-2-(1,3,4-oxadiazol-2-yl)-7-(4-(2-(pyrimidin-5-yl)phenyl)piperidin-1-yl)-5-oxa-2-azaspiro[3.4]octane]: the Emax was determined as 0% and the EC50 is > 25 µM.

For the compound `CC(C)(O)CCOc1cc(F)ccc1C1CCN([C@@H]2COC3(C2)CN(c2nncs2)C3)CC1` [Example 5V, (S)-4-(2-(1-(2-(1,3,4-thiadiazol-2-yl)-5-oxa-2-azaspiro[3.4]octan-7-yl)piperidin-4-yl)-5-fluorophenoxy)-2-methylbutan-2-ol], the Emax came to 0% and the EC50 was > 25 µM.

As to `CC1(COc2ccc(F)cc2C2CCN([C@@H]3COC4(C3)CN(c3nncs3)C4)CC2)COC1` [Example 2B, (S)-7-(4-(5-fluoro-2-((3-methyloxetan-3-yl)methoxy)phenyl)piperidin-1-yl)-2-(1,3,4-thiadiazol-2-yl)-5-oxa-2-azaspiro[3.4]octane], the Emax was 0% and the half-maximal effective concentration (EC50) is > 25 µM.

As to `Fc1ccc(OC2COCOC2)c(C2CCN([C@@H]3COC4(C3)CN(c3nnco3)C4)CC2)c1` [Example 1M, (S)-7-(4-(2-((1,3-dioxan-5-yl)oxy)-5-fluorophenyl)piperidin-1-yl)-2-(1,3,4-oxadiazol-2-yl)-5-oxa-2-azaspiro[3.4]octane], the Emax turned out to be 0% and the EC50 was > 25 µM.

As for `COc1ccc(F)cc1C1CCN([C@@H]2COC3(C2)CN(c2nnco2)C3)CC1` [Example 1V, (S)-7-(4-(5-fluoro-2-methoxyphenyl)piperidin-1-yl)-2-(1,3,4-oxadiazol-2-yl)-5-oxa-2-azaspiro[3.4]octane], the Emax is 0% and the 50% effective concentration (EC50) was > 25 µM.

Take `Fc1ccc(OC2CC3(COC3)C2)c(C2CCN([C@@H]3COC4(C3)CN(c3ncon3)C4)CC2)c1` [Example 6C, (S)-7-(4-(2-((2-oxaspiro[3.3]heptan-6-yl)oxy)-5-fluorophenyl)piperidin-1-yl)-2-(1,2,4-oxadiazol-3-yl)-5-oxa-2-azaspiro[3.4]octane]: the Emax came out at 0% and the EC50 is > 25 µM.

Regarding `Fc1ccc(OC[C@H]2CCCO2)c(C2CCN([C@@H]3COC4(C3)CN(c3nnco3)C4)CC2)c1` [Example 2M, (S)-7-(4-(5-fluoro-2-(((R)-tetrahydrofuran-2-yl)methoxy)phenyl)piperidin-1-yl)-2-(1,3,4-oxadiazol-2-yl)-5-oxa-2-azaspiro[3.4]octane], the Emax was 0% and the EC50 is > 25 µM.

As for `Cc1nnc(-c2ccccc2C2CCN([C@@H]3COC4(C3)CN(c3nnco3)C4)CC2)o1` [Example 1Y, (S)-7-(4-(2-(5-methyl-1,3,4-oxadiazol-2-yl)phenyl)piperidin-1-yl)-2-(1,3,4-oxadiazol-2-yl)-5-oxa-2-azaspiro[3.4]octane], the Emax turned out to be 0% and the EC50 is > 25 µM.

Regarding `Fc1ccc(OC2COC2)c(C2CCN([C@@H]3COC4(C3)CN(c3ncon3)C4)CC2)c1` [Example 6B, (S)-7-(4-(5-fluoro-2-(oxetan-3-yloxy)phenyl)piperidin-1-yl)-2-(1,2,4-oxadiazol-3-yl)-5-oxa-2-azaspiro[3.4]octane], the Emax stood at 0% and the EC50 was > 25 µM.

Take `Cc1cc(COc2ccc(F)cc2C2CCN([C@@H]3COC4(C3)CN(c3nnco3)C4)CC2)on1` [Example 2G, (S)-7-(4-(5-fluoro-2-((3-methylisoxazol-5-yl)methoxy)phenyl)piperidin-1-yl)-2-(1,3,4-oxadiazol-2-yl)-5-oxa-2-azaspiro[3.4]octane]: the Emax came out at 0% and the EC50 was > 25 µM.

Regarding `COC(C)(C)CCOc1ccc(F)cc1C1CCN([C@@H]2COC3(C2)CN(c2nnco2)C3)CC1` [Example 1K, (S)-7-(4-(5-fluoro-2-(3-methoxy-3-methylbutoxy)phenyl)piperidin-1-yl)-2-(1,3,4-oxadiazol-2-yl)-5-oxa-2-azaspiro[3.4]octane], the Emax was 0% and the EC50 was > 25 µM.

`COc1ccccc1C1CCN([C@@H]2COC3(C2)CN(c2nnco2)C3)CC1` [Example 1Q, (S)-7-(4-(2-methoxyphenyl)piperidin-1-yl)-2-(1,3,4-oxadiazol-2-yl)-5-oxa-2-azaspiro[3.4]octane]: the Emax was 0% and the EC50 is > 25 µM.

For `Fc1cc(O[C@@H]2CCOC2)c(C2CCN([C@@H]3COC4(C3)CN(c3nnco3)C4)CC2)cc1F` [Example 1R, (S)-7-(4-(4,5-difluoro-2-(((R)-tetrahydrofuran-3-yl)oxy)phenyl)piperidin-1-yl)-2-(1,3,4-oxadiazol-2-yl)-5-oxa-2-azaspiro[3.4]octane], the Emax turned out to be 0% and the 50% effective concentration (EC50) was > 25 µM.

On to `CCC1(COc2ccc(F)cc2C2CCN([C@@H]3COC4(C3)CN(c3nnco3)C4)CC2)COC1` [Example 2P, (S)-7-(4-(2-((3-ethyloxetan-3-yl)methoxy)-5-fluorophenyl)piperidin-1-yl)-2-(1,3,4-oxadiazol-2-yl)-5-oxa-2-azaspiro[3.4]octane], for which the Emax turned out to be 0% and the EC50 is > 25 µM.
